The results in this text go back to patent publication US20210253598A1, “ARYL ANNULATED MACROCYCLIC INDOLE DERIVATIVES” (priority 2017, published 2021).

For one data set, the target named is MCL-1 (Homo sapiens, UniProt Q07820, K194A/K197A/R201A). The experiment in a line: Protein-protein interaction assay MCL-1/Noxa BH3 peptide, TR-FRET (MCL-1 assay, Assay 1). The format is binding. The note with it: MCL-1 Assay [M] (median), MBP-MCL-1 / Noxa BH3 peptide. Summed up:
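TR-FRET competition between compounds and a biotin-PEG Noxa BH3 tracer for 1 nM MBP-MCL-1 (residues 173-321). Incubation was 1 h at 22 °C in the dark, then overnight at 4 °C, in 50 mM Tris pH 7 buffer with KF and DTT, after a 10-min compound pre-equilibration. Normalized ratios were fitted with a 4-parameter Hill equation to give IC50.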

For another data set, the target named is BCL-XL (Homo sapiens, UniProt Q07817). The experiment in a line: Protein-protein interaction assay BCL-XL/Bad BH3 peptide, TR-FRET (BCL-XL assay, Assay 2). The format is binding. The note with it: His-BCL-XL / Bad BH3 peptide, median.
The target of another data set is BCL-2 (Homo sapiens, UniProt P10415). As to the kind of experiment: Protein-protein interaction assay BCL-2/Bad BH3 peptide, TR-FRET (BCL-2 assay, Assay 3). The format is binding. The note with it: His-BCL-2 / Bad BH3 peptide, median.
For data set [1], the system named is SUDHL5. As to the kind of experiment: Induction of caspase-3/7 activity in SUDHL5 cells (Assay 4). The format is cell-based. Summed up: (§1)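 Luminescent Caspase-Glo 3/7 read-out in SUDHL5 and SUDHL10 cells after 3 h compound exposure at 37 °C, followed by 1 h reagent incubation.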
Data set [2] deals with SUDHL10. As to the kind of experiment: Induction of caspase-3/7 activity in SUDHL10 cells (Assay 4). The format is cell-based. The essentials: as §1
The subject of data set [3] is SUDHL5. As to the kind of experiment: Induction of cytotoxicity in SUDHL5 cells, CellTiter-Glo (Assay 6). The format is cell-based. The note with it: SUDHL5, 5 hours incubation, median, read-out: Cytotox SUDHL5 [M] (median). The essentials: (§2)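 Luminescent ATP read-out (CellTiter-Glo) after 5 h compound exposure at 37° C. Cells seeded the day before; medium-only wells as background; rim wells excluded.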

For data set [4], the system named is SUDHL10. As to the kind of experiment: Induction of cytotoxicity in SUDHL10 cells, CellTiter-Glo (Assay 6). The format is cell-based. The note with it: SUDHL10, 5 hours incubation, median, read-out: Cytotox SUDHL10 [M] (median). The essentials: as §2
The subject of data set [5] is SUDHL5. As to the kind of experiment: Anti-proliferative effect in SUDHL5 cells, CellTiter-Glo (Assay 7). The format is cell-based. The essentials:
(§3)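 72 h CTG viability assay, 37 °C, humidified. Time-zero plate as baseline; IC50 vs day 0 and DMSO controls.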

Another data set concerns MV-4-11. The experiment in a line: Anti-proliferative effect in MV-4-11 cells, CellTiter-Glo (Assay 7). The format is cell-based. The note with it: several values per example. Summed up: as §3
A further data set has as its system AMO-1. As to the kind of experiment: Anti-proliferative effect in AMO-1 cells, CellTiter-Glo (Assay 7). The format is cell-based. The note with it: several values per example. The essentials: as §3
Another data set has as its system A2780. The experiment in a line: Anti-proliferative effect in A2780 cells, CellTiter-Glo (Assay 7). The format is cell-based. The note with it: Homo sapiens, A2780, 72 h, several values per example. Summed up:
as §3

The mark [6] stands for this setting: read-out: Caspase SUDHL5 [M] (median), SUDHL5, 3 hours treatment, Caspase-Glo 3/7.
Where [7] appears, read: read-out: Caspase SUDHL10 [M] (median), SUDHL10, 3 hours treatment, Caspase-Glo 3/7.
[8] abbreviates: read-out: Antiproli SUDHL5 [M] (median), SUDHL5, 72 hours incubation, CellTiter-Glo.
Where [9] appears, read: read-out: Antiproli AMO-1, AMO-1, 72 hours incubation, CellTiter-Glo.
Where [10] appears, read: read-out: Antiproli A2780 [M], A2780, 72 hours incubation, CellTiter-Glo.
Setting [11] is: Homo sapiens, SU-DHL-5, 3 h, SUDHL5, 3 hours treatment, Caspase-Glo 3/7, median, read-out: Caspase SUDHL5 [M] (median).
Setting [12] is: Homo sapiens, SU-DHL10, 3 h, SUDHL10, 3 hours treatment, Caspase-Glo 3/7, median, read-out: Caspase SUDHL10 [M] (median).
Setting [13] is: Homo sapiens, SU-DHL-5, 72 h, SUDHL5, 72 hours incubation, CellTiter-Glo, median, read-out: Antiproli SUDHL5 [M] (median).
Setting [14] is: Homo sapiens, AMO1, 72 h, AMO-1, 72 hours incubation, CellTiter-Glo, read-out: Antiproli AMO-1.
The mark [15] stands for this setting: A2780, 72 hours incubation, CellTiter-Glo, read-out: Antiproli A2780.
The mark [16] stands for this setting: Homo sapiens, MV4-11, 72 h, MV-4-11, 72 hours incubation, CellTiter-Glo, read-out: Antiproli MV-4-11.
Where [17] appears, read: MV-4-11, 72 hours incubation, CellTiter-Glo, read-out: Antiproli MV-4-11.
The mark [18] stands for this setting: AMO-1, 72 hours incubation, CellTiter-Glo, read-out: Antiproli AMO-1.

Values joined by “and” are separate entries in the source; they are usually repeats but may differ in a detail not shown here. Identical values can stand only once. Counter-ions that a name gives are not always drawn. Like-named read-outs stand apart in the source and are kept apart here.

Chain of MCL-1 (Q07820 173-321 K194A/K197A/R201A, looked up): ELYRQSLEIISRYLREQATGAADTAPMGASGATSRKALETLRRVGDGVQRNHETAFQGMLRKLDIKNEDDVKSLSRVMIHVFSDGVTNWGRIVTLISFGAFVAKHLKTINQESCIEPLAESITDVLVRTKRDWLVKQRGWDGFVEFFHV
Chain of BCL-XL (Q07817 1-212): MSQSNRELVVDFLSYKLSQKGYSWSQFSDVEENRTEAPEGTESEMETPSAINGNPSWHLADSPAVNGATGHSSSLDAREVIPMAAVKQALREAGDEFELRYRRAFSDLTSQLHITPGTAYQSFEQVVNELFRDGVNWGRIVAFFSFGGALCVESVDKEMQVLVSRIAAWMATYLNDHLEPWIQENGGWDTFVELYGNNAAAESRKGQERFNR
Chain of BCL-2 (P10415 1-211): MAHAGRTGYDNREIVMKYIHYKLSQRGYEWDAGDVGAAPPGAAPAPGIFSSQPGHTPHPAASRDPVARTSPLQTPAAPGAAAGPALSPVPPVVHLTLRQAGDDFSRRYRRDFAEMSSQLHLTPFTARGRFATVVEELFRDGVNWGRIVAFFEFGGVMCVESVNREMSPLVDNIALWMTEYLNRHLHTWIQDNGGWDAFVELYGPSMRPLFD

As for `CCc1c2c(nn1C)COCc1ccccc1Cn1c(C(=O)O)c(CCCOc3cccc4ccccc34)c3ccc(F)c-2c31` (single isomer, unassigned; enantiomer 1) [Example 71, (−)-4-Ethyl-3-fluoro-5-methyl-17-{3-[(naphthalen-1-yl)oxy]propyl}-5,7,9,14-tetrahydroindolo[7,1-fg]pyrazolo[3,4-d][2,8]benzoxazacycloundecine-16-carboxylic acid-N-ethylethanamine Salt (Enantiomer 1)], the IC50 is 1.2e-09 M on MCL-1; more than 20 µM against BCL-XL; 12.8 µM on BCL-2; 1.9e-06 M in the data set with SUDHL5 [3]; 3.6e-06 M in the data set with SUDHL10 [4]; 2.5e-06 M in the data set on SUDHL5 [5] (setting [8]). In addition, the IC50 in the data set on MV-4-11 (Homo sapiens, MV4-11, 72 h, read-out: Antiproli MV-4-11 [M], MV-4-11, 72 hours incubation, CellTiter-Glo) is 4.81e-06 M; in the data set on AMO-1 (setting [9]) it was 3.48e-06 M; with A2780 (setting [10]), 9.41e-06 M. In addition, the EC50 in the data set with SUDHL5 [1] (setting [6]) is 1.6e-06 M; with SUDHL10 [2] (setting [7]), 4e-06 M.
As to `Cc1c2c(nn1C)COCc1cccnc1Cn1c(C(=O)O)c(CCCOc3cccc4ccccc34)c3ccc(Cl)c-2c31` (single isomer, unassigned; enantiomer 1) [Example 40, 3-Chloro-4,5-dimethyl-17-[3-(naphthalen-1-yloxy)propyl]-5,7,9,14-tetrahydropyrazolo-[4′,3′:9,10]pyrido[3′,2′:3,4][1,6]oxazacycloundecino[8,7,6-hi]indole-16-carboxylic acid-N-ethylethanamine Salt (Enantiomer 1)], the IC50 was 19.4 µM against BCL-XL; more than 20 µM at BCL-2; 3.3e-06 M with SUDHL5 [3] (Homo sapiens, SU-DHL-5, 5 h); 8.3e-06 M in the data set on SUDHL10 [4] (Homo sapiens, SU-DHL10, 5 h); 2.2e-06 M in the data set with SUDHL5 [5] (setting [8]); 7.53e-06 M in the data set on AMO-1 (Homo sapiens, AMO1, 72 h, read-out: Antiproli AMO-1 [M], AMO-1, 72 hours incubation, CellTiter-Glo). Moreover, the IC50 in the data set with AMO-1 (setting [9]) was 9.07e-06 M; in the data set on A2780 (setting [10]), 2.19e-05 M. Further, the EC50 is 2.5e-06 M in the data set with SUDHL5 [1] (setting [6]) and 1.4e-05 M in the data set with SUDHL10 [2] (Homo sapiens, SU-DHL10, 3 h, read-out: Caspase SUDHL10 [M] (median), SUDHL10, 3 hours treatment, Caspase-Glo 3/7).
With `CCc1c2c(nn1C)COCc1ccccc1Cn1c(C(=O)O)c(CCCOc3cccc4c3CCCC4)c3ccc(F)c-2c31` (racemic) [Example 77, (rac)-14-Ethyl-15-fluoro-13-methyl-1-(3-((5,6,7,8-tetrahydronaphthalen-1-yl)oxy)propyl)-4,9,11,13-tetrahydrobenzo[3,4]pyrazolo[4′,3′:9,10][1]oxa[6]azacycloundecino[8,7,6-hi]indole-2-carboxylic Acid], the IC50 on BCL-XL was more than 20 µM; at BCL-2, 12.6 µM; in the data set on SUDHL5 [3] (Homo sapiens, SU-DHL-5, 5 h) it was 3e-06 M; with SUDHL10 [4] (Homo sapiens, SU-DHL10, 5 h), 6.2e-06 M; in the data set on SUDHL5 [5] (setting [13]), 5.8e-06 M; with AMO-1 (setting [14]), 7.22e-06 M. The IC50 in the data set with A2780 (setting [15]) worked out at 1.02e-05 M. The values for the EC50 in the data set with SUDHL5 [1] (setting [11]) and in the data set with SUDHL10 [2] (setting [12]) were 2.4e-06 M and 8.4e-06 M, respectively.
Take `CCc1nn(C)c2c1-c1c(F)ccc3c(CCCOc4cccc5ccccc45)c(C(=O)O)n(c13)Cc1ccccc1COC2` (racemic) [Example 91, (rac)-14-Ethyl-15-fluoro-12-methyl-1-(3-(naphthalen-1-yloxy)propyl)-4,9,11,12-tetrahydrobenzo[3,4]pyrazolo[4′,3′:9,10][1,6]oxaazacycloundecino[8,7,6-hi]indole-2-carboxylic Acid]: the IC50 is 8.6e-09 M on MCL-1; more than 20 µM against BCL-XL; not below 20.5 µM on BCL-2; 3.2e-06 M in the data set with SUDHL5 [3] (Homo sapiens, SU-DHL-5, 5 h); 7.5e-06 M in the data set on SUDHL10 [4] (Homo sapiens, SU-DHL10, 5 h); 3.6e-06 M in the data set on SUDHL5 [5] (setting [13]). Besides, the IC50 in the data set on MV-4-11 (setting [16]) turned out to be 1.24e-05 M; with MV-4-11 (setting [17]), 1.17e-05 M; with AMO-1 (setting [18]), 1.53e-05 M; in the data set with AMO-1 (setting [14]), 1.87e-05 M. In addition, the EC50 stood at 2.8e-06 M in the data set on SUDHL5 [1] (setting [11]) and 1.2e-05 M in the data set on SUDHL10 [2] (setting [12]).
Consider `Cc1c2c(nn1C)CN(C)Cc1ccccc1Cn1c(C(=O)O)c(CCCOc3cccc4ccccc34)c3cccc-2c31` (single isomer, unassigned; enantiomer 1) [Example 15, 4,5,8-Trimethyl-17-[3-(naphthalen-1-yloxy)propyl]-7,8,9,14-tetrahydro-5H-indolo[1,7-bc]-pyrazolo[4,3-e][2,8]benzodiazacycloundecine-16-carboxylic acid-N-ethylethanamine Salt (Enantiomer 1)], for which the IC50 against MCL-1 is 6.9e-09 M; against BCL-XL it was more than 20 µM; against BCL-2 it was more than 20 µM; in the data set on SUDHL5 [3], 3.3e-06 M; with SUDHL10 [4], 1.1e-05 M; with SUDHL5 [5] (Homo sapiens, SU-DHL-5, 72 h, read-out: Antiproli SUDHL5 [M] (median), SUDHL5, 72 hours incubation, CellTiter-Glo), 2.8e-06 M. In addition, the IC50 with AMO-1 (setting [9]) is 6.25e-06 M and 5.63e-06 M; in the data set on A2780 (setting [10]), more than 3.3e-05 M. In addition, the EC50 in the data set on SUDHL5 [1] (setting [6]) is 2.6e-06 M; with SUDHL10 [2] (setting [7]), 1.2e-05 M.
Turning to `Cc1nn(C)c2c1-c1c(F)ccc3c(CCCOc4cccc5ccccc45)c(C(=O)O)n(c13)Cc1ccccc1COC2` (racemic) [Example 80, (rac)-15-Fluoro-12,14-dimethyl-1-(3-(naphthalen-1-yloxy)propyl)-4,9,11,12-tetrahydrobenzo-[3,4]pyrazolo[4′,3′:9,10][1]oxa[6]azacycloundecino[8,7,6-hi]indole-2-carboxylic Acid], the IC50 against MCL-1 is 7.6e-09 M; against BCL-XL, more than 20 µM; against BCL-2, more than 20 µM; with SUDHL5 [3] (Homo sapiens, SU-DHL-5, 5 h), 4.3e-06 M; in the data set with SUDHL10 [4] (Homo sapiens, SU-DHL10, 5 h) it was more than 1.1e-05 M; in the data set on SUDHL5 [5] (setting [13]), 7.7e-06 M. The IC50 was determined as 2.57e-05 M in the data set on AMO-1 (setting [14]) and 1.78e-05 M with A2780 (setting [15]). In addition, the EC50 was 5.2e-06 M in the data set on SUDHL5 [1] (setting [11]) and more than 2.5e-05 M with SUDHL10 [2] (setting [12]).
As for `CCc1nn(C)c2c1-c1c(F)ccc3c(CCCOc4cccc5c4CCC5)c(C(=O)O)n(c13)Cc1ccccc1COC2` (racemic) [Example 87, (rac)-1-(3-((2,3-Dihydro-1H-inden-4-yl)oxy)propyl)-14-ethyl-15-fluoro-12-methyl-4,9,11,12-tetrahydrobenzo[3,4]pyrazolo[4′,3′:9,10][1,6]oxaazacycloundecino[8,7,6-hi]indole-2-carboxylic Acid], the IC50 at MCL-1 is 4.5e-09 M; on BCL-XL, more than 20 µM; against BCL-2, 13.7 µM; in the data set on SUDHL5 [3] (Homo sapiens, SU-DHL-5, 5 h), 3.2e-06 M; in the data set with SUDHL10 [4] (Homo sapiens, SU-DHL10, 5 h) it was 6e-06 M; in the data set on SUDHL5 [5] (setting [13]), 2.1e-06 M. The IC50 in the data set with MV-4-11 (setting [16]) turned out to be 1.24e-05 M; in the data set with MV-4-11 (setting [17]), 6.98e-06 M; in the data set with AMO-1 (setting [18]), 6.64e-06 M; in the data set with AMO-1 (setting [14]) it was 1.29e-05 M. Besides, the EC50 in the data set with SUDHL5 [1] (setting [11]) was 2.3e-06 M; in the data set on SUDHL10 [2] (setting [12]) it was 9.4e-06 M.
